Molecular target: P. falciparum apicoplast DNA polymerase (Pf-apPOL) (Plasmodium falciparum, UniProt Q8ILY1)
Assay: Fluorescence-based high-throughput DNA polymerase assay (molecular beacon), primary screen and dose-response
Format: biochemical
Settings: for DNA Pol: 90 min, 10 µM; for % inhibition apPOL 180' 2.5 / % inhibition apPOL 180' 5 / % inhibition apPOL 180' 10 / % inhibition apPOL 180' 20 / % inhibition apPOL 180' 40 / % inhibition apPOL 180' 80: read at 180'
Outline: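 Single-point screening used 10 µM compound with 20 nM polymerase, 20 nM hairpin substrate and 6 µM dNTPs for 90 min at 25 °C. Confirmatory titrations (2.5–80 µM) followed fluorescence at three times, and IC50 was derived from a fit including a cooperativity term n.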

[1] = 'DNA Pol' of the 186 hits list (primary screen value)

Sequence of P. falciparum apicoplast DNA polymerase (Pf-apPOL) (Q8ILY1 entry or part of it): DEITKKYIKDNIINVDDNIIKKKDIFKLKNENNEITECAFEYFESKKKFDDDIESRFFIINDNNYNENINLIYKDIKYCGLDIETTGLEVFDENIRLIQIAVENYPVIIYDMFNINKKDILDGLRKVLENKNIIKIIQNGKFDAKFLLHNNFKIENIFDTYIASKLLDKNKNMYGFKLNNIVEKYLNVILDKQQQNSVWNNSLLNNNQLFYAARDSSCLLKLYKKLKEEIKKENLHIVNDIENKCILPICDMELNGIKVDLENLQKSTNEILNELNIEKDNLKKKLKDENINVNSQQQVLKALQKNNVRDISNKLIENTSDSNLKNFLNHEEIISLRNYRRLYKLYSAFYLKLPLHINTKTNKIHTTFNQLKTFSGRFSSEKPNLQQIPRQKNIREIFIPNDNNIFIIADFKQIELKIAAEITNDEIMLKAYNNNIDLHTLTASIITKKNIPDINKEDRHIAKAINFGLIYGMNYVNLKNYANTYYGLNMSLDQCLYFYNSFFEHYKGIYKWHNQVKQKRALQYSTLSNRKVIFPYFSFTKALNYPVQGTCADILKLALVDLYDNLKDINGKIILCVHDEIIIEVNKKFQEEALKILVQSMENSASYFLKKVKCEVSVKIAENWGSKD

## O=c1[nH]c2ccc([N+](=O)[O-])cc2c(-c2ccccc2)c1Sc1nc2ccccc2o1 [KU0067471]
[1]
  DNA Pol: 28
DNA Pol (primary screen value)
  DNA Pol: 28
DRC-1, concentration 2.5
  % inhibition Apo pol 10': 11.1433%
  % inhibition Apol 90': 8.412%
  % inhibition apPOL 180': 7.341%
DRC-1, concentration 5
  % inhibition Apo pol 10': 11.3784%
  % inhibition Apol 90': 5.979%
  % inhibition apPOL 180': 3.743%
DRC-1, concentration 10
  % inhibition Apo pol 10': 23.2925%
  % inhibition Apol 90': 13.3902%
  % inhibition apPOL 180': 8.363%
DRC-1, concentration 20
  % inhibition Apo pol 10': 44.3997%
  % inhibition Apol 90': 30.6503%
  % inhibition apPOL 180': 19.4729%
DRC-1, concentration 40
  % inhibition Apo pol 10': 71.988%
  % inhibition Apol 90': 58.6016%
  % inhibition apPOL 180': 44.0566%
DRC-1, concentration 80
  % inhibition Apo pol 10': 85.2168%
  % inhibition Apol 90': 77.507%
  % inhibition apPOL 180': 66.9195%
DRC-2, concentration 2.5
  % inhibition Apo pol 5': 9%
  % inhibition Apol 40': 7%
  % inhibition ApPOL 90': 5%
  % inhibition apPOL 180': -0.297%
DRC-2, concentration 5
  % inhibition Apo pol 5': 12%
  % inhibition Apol 40': 9%
  % inhibition ApPOL 90': 7%
  % inhibition apPOL 180': -0.499%
DRC-2, concentration 10
  % inhibition Apo pol 5': 26%
  % inhibition Apol 40': 24%
  % inhibition ApPOL 90': 20%
  % inhibition apPOL 180': 10%
DRC-2, concentration 20
  % inhibition Apo pol 5': 42%
  % inhibition Apol 40': 43%
  % inhibition ApPOL 90': 40%
  % inhibition apPOL 180': 26%
DRC-2, concentration 40
  % inhibition Apo pol 5': 59%
  % inhibition Apol 40': 65%
  % inhibition ApPOL 90': 65%
  % inhibition apPOL 180': 57%
DRC-2, concentration 80
  % inhibition Apo pol 5': 60%
  % inhibition Apol 40': 72%
  % inhibition ApPOL 90': 73%
  % inhibition apPOL 180': 72%

## Nc1cc(Oc2ccc(O)c(N)c2)ccc1O [KU0034728]
186 hits, DNA Pol (screen value), unit not given
  DNA Pol: 65
'DNA Pol' (screen value), unit not given
  DNA Pol: 65
DRC-1, read at 10', concentration 2.5
  % inhibition Apo pol 10' 2.5: 19.846%
DRC-1, read at 10', concentration 5
  % inhibition Apo pol 10' 5: 31.2811%
DRC-1, read at 10', concentration 10
  % inhibition Apo pol 10' 10: 55.4709%
DRC-1, read at 10', concentration 20
  % inhibition Apo pol 10' 20: 70.5604%
DRC-1, read at 10', concentration 40
  % inhibition Apo pol 10' 40: 80.3003%
DRC-1, read at 10', concentration 80
  % inhibition Apo pol 10' 80: 87.2374%
DRC-1, read at 90', concentration 2.5
  % inhibition Apol 90' 2.5: 8.186%
DRC-1, read at 90', concentration 5
  % inhibition Apol 90' 5: 16.785%
DRC-1, read at 90', concentration 10
  % inhibition Apol 90' 10: 34.847%
DRC-1, read at 90', concentration 20
  % inhibition Apol 90' 20: 48.9946%
DRC-1, read at 90', concentration 40
  % inhibition Apol 90' 40: 59.758%
DRC-1, read at 90', concentration 80
  % inhibition Apol 90' 80: 68.9049%
DRC-1, concentration 2.5
  % inhibition apPOL 180' 2.5: 2.338%
DRC-1, concentration 5
  % inhibition apPOL 180' 5: 7.101%
DRC-1, concentration 10
  % inhibition apPOL 180' 10: 22.2951%
DRC-1, concentration 20
  % inhibition apPOL 180' 20: 34.6321%
DRC-1, concentration 40
  % inhibition apPOL 180' 40: 46.6312%
DRC-1, concentration 80
  % inhibition apPOL 180' 80: 55.3391%
DRC-2, concentration 5
  % inhibition Apo pol 5': 43%
  % inhibition apPOL 180' 5: 26%
DRC-2, concentration 20
  % inhibition Apol 40': 65%
  % inhibition ApPOL 90': 65%
  % inhibition apPOL 180' 20: 59%
DRC-2, concentration 40
  % inhibition Apol 40': 74%
  % inhibition apPOL 180': 74%
  % inhibition apPOL 180' 40: 74%
DRC-2, concentration 2.5
  % inhibition ApPOL 90': 43%
  % inhibition apPOL 180' 2.5: 31%
DRC-2, concentration 10
  % inhibition apPOL 180': 43%
  % inhibition apPOL 180' 10: 43%
DRC-2, read at 5', concentration 2.5
  % inhibition Apo pol 5' 2.5: 42%
DRC-2, read at 5', concentration 5
  % inhibition Apo pol 5' 5: 43%
DRC-2, read at 5', concentration 10
  % inhibition Apo pol 5' 10: 50%
DRC-2, read at 5', concentration 20
  % inhibition Apo pol 5' 20: 52%
DRC-2, read at 5', concentration 40
  % inhibition Apo pol 5' 40: 56%
DRC-2, read at 5', concentration 80
  % inhibition Apo pol 5' 80: 30%
DRC-2, read at 40', concentration 2.5
  % inhibition Apol 40' 2.5: 47%
DRC-2, read at 40', concentration 5
  % inhibition Apol 40' 5: 44%
DRC-2, read at 40', concentration 10
  % inhibition Apol 40' 10: 57%
DRC-2, read at 40', concentration 20
  % inhibition Apol 40' 20: 65%
DRC-2, read at 40', concentration 40
  % inhibition Apol 40' 40: 74%
DRC-2, read at 40', concentration 80
  % inhibition Apol 40' 80: 64%
DRC-2, read at 90', concentration 2.5
  % inhibition ApPOL 90' 2.5: 43%
DRC-2, read at 90', concentration 5
  % inhibition ApPOL 90' 5: 40%
DRC-2, read at 90', concentration 10
  % inhibition ApPOL 90' 10: 55%
DRC-2, read at 90', concentration 20
  % inhibition ApPOL 90' 20: 65%
DRC-2, read at 90', concentration 40
  % inhibition ApPOL 90' 40: 76%
DRC-2, read at 90', concentration 80
  % inhibition ApPOL 90' 80: 71%
DRC-2, concentration 80
  % inhibition apPOL 180' 80: 75%

## O=C1CCCC2=C1C(c1ccccn1)C1=C(CCCC1=O)O2 [KU0194228]
[1]
  DNA Pol: 11
DNA Pol (primary screen value)
  DNA Pol: 11
DRC-1, concentration 2.5
  % inhibition Apo pol 10': 1.279%
  % inhibition Apol 90': 2.669%
  % inhibition apPOL 180': 5.61%
DRC-1, concentration 5
  % inhibition Apo pol 10': 9.9789%
  % inhibition Apol 90': 9.934%
  % inhibition apPOL 180': 16.0813%
DRC-1, concentration 10
  % inhibition Apo pol 10': 33.5344%
  % inhibition Apol 90': 28.061%
  % inhibition apPOL 180': 29.7893%
DRC-1, concentration 20
  % inhibition Apo pol 10': 43.7332%
  % inhibition Apol 90': 43.923%
  % inhibition apPOL 180': 44.3828%
DRC-1, concentration 40
  % inhibition Apo pol 10': 62.1087%
  % inhibition Apol 90': 56.4118%
  % inhibition apPOL 180': 53.3605%
DRC-1, concentration 80
  % inhibition Apo pol 10': 77.9707%
  % inhibition Apol 90': 74.3626%
  % inhibition apPOL 180': 68.1872%
DRC-2, concentration 2.5
  % inhibition Apo pol 5': 5%
  % inhibition Apol 40': 2.6%
  % inhibition ApPOL 90': 2%
  % inhibition apPOL 180': -0.328%
DRC-2, concentration 5
  % inhibition Apo pol 5': 4%
  % inhibition Apol 40': -9%
  % inhibition ApPOL 90': -14%
  % inhibition apPOL 180': -74%
DRC-2, concentration 10
  % inhibition Apo pol 5': 22%
  % inhibition Apol 40': 15%
  % inhibition ApPOL 90': 18%
  % inhibition apPOL 180': 22%
DRC-2, concentration 20
  % inhibition Apo pol 5': 33%
  % inhibition Apol 40': 33%
  % inhibition ApPOL 90': 37%
  % inhibition apPOL 180': 41%
DRC-2, concentration 40
  % inhibition Apo pol 5': 44%
  % inhibition Apol 40': 46%
  % inhibition ApPOL 90': 49%
  % inhibition apPOL 180': 48%
DRC-2, concentration 80
  % inhibition Apo pol 5': 43%
  % inhibition Apol 40': 52%
  % inhibition ApPOL 90': 58%
  % inhibition apPOL 180': 60%

Source: paper PMC9090415, “Discovery of small molecule inhibitors of Plasmodium falciparum apicoplast DNA polymerase” (Journal of Enzyme Inhibition and Medicinal Chemistry, 2022)
